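How tested: cells in 96-well plates exposed to compound for 48 hours at five concentrations. TGI: concentration producing complete growth inhibition.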
What was measured:
Assay in all cases: NCI tumour cell line growth inhibition, 48 h
[1] = test system: DU-145 prostate
[2] = test system: EKVX NSCLC
[3] = test system: HCT-116 colon
[4] = test system: HCT-15 colon
[5] = test system: MDA-MB-231 breast
[6] = test system: MDA-MB-435
[7] = test system: MOLT-4 leukemia
[8] = test system: NCI-H23 lung
[9] = test system: NCI-H460 lung
[10] = test system: NCI-H522 lung
[11] = test system: NCI/ADR-RES ovarian
[12] = test system: OVCAR-3 ovarian
[13] = test system: SF-268 CNS
[14] = test system: SF-539 CNS
[15] = test system: SK-MEL-28 melanoma
[16] = test system: SK-OV-3 ovarian
[17] = test system: SW-620 colon
[18] = test system: T-47D breast
[19] = test system: HCC-2998 colon
[20] = test system: MDA-N

Compound	TGI [1]	TGI [2]	TGI [3]	TGI [4]	TGI [5]	TGI [6]	TGI [7]	TGI [8]	TGI [9]	TGI [10]	TGI [11]	TGI [12]	TGI [13]	TGI [14]	TGI [15]	TGI [16]	TGI [17]	TGI [18]	TGI [19]	TGI [20]
Cc1ccc(-n2cnc3c(N/N=C4\SCC(=O)N4c4ccccc4)ncnc32)cc1	17.5 µM	29 µM	13 µM	11.5 µM	10.5 µM	13.3 µM	5.48 µM	14 µM	13.2 µM	7.28 µM	53.8 µM	11.5 µM	19.7 µM	3.71 µM	11.4 µM	27.7 µM	16.5 µM	18.7 µM		
CC(C)=CCC/C(C)=C/Cc1c(O)ccc2c1[nH]c1cc(O)c(C)cc12			> 25 µM	> 25 µM			> 25 µM		> 25 µM	> 25 µM		21.2 µM	> 25 µM	23.8 µM	> 25 µM	> 25 µM	> 25 µM		> 25 µM	
NC1CNC(=O)c2cscc21 (stereo not drawn)	> 100 µM	> 100 µM	> 100 µM	> 100 µM		> 100 µM	> 100 µM	> 100 µM	> 100 µM	> 100 µM	> 100 µM	> 100 µM	> 100 µM		> 100 µM		> 100 µM		> 100 µM	> 100 µM
CCOC(=O)C1(Cc2c[nH]c3ccccc23)C(O)CCCN1C(C)=O (stereo not drawn)	> 100 µM	> 100 µM	> 100 µM	> 100 µM	> 100 µM	> 100 µM	> 100 µM	> 100 µM	> 100 µM		> 100 µM	> 100 µM	> 100 µM	> 100 µM	> 100 µM	> 100 µM	> 100 µM	> 100 µM	> 100 µM	
O=Cc1cc2c(o1)C(=O)c1ccccc1C2=O	0.427 µM	7.46 µM	1.18 µM		> 30.2 µM		4.56 µM	0.465 µM	2.39 µM		5.54 µM	2.11 µM	4.13 µM	2.25 µM	1.08 µM	9.57 µM	1.02 µM	3.94 µM	3.43 µM	0.352 µM
OC(c1ccccc1)(c1ccccc1)c1cccnc1		> 100 µM	> 100 µM	> 100 µM				> 100 µM	> 100 µM			> 100 µM	> 100 µM	> 100 µM	> 100 µM	> 100 µM	> 100 µM		> 100 µM	
CC(C)CNC(=O)Cn1c2c(c3ccccc31)CCCC2		> 100 µM	> 100 µM	> 100 µM		> 100 µM	> 100 µM	> 100 µM	> 100 µM		> 100 µM	> 100 µM	> 100 µM	> 100 µM	> 100 µM	> 100 µM	> 100 µM		> 100 µM	> 100 µM
CC(C)N1CSC(=S)N(Cc2ccccc2)C1		> 10 µM	> 10 µM	> 10 µM		> 10 µM	7.43 µM	> 10 µM	> 10 µM		> 10 µM	> 10 µM	> 10 µM	3.35 µM	> 10 µM	> 10 µM	> 10 µM	> 10 µM	> 10 µM	7.44 µM
CCOC(CCCN1CCC2(CC1)C(=O)N(C)CN2c1ccccc1)(OCC)c1ccc(F)cc1	46.5 µM	9.81 µM	14.2 µM	22.7 µM	29.3 µM		22.6 µM	39.5 µM		34.2 µM	33.5 µM	26.8 µM	29.7 µM	13.7 µM	30.5 µM	46.8 µM	28.7 µM	29.8 µM	21.3 µM	24.5 µM
CN1C(=O)C(O)CC1c1cccc(F)c1 (stereo not drawn)	> 100 µM	> 100 µM	> 100 µM	> 100 µM	> 100 µM	> 100 µM	> 100 µM	> 100 µM	> 100 µM	> 100 µM	> 100 µM	> 100 µM		> 100 µM	> 100 µM	> 100 µM	> 100 µM		> 100 µM	> 100 µM
Cc1cccc(Nc2cn(CCOc3ccccc3)c(=O)n(CCOc3ccccc3)c2=O)c1	> 100 µM	96.9 µM	> 100 µM	> 100 µM		> 100 µM	> 100 µM	> 100 µM	> 100 µM			> 100 µM	> 100 µM		> 100 µM		> 100 µM		> 100 µM	> 100 µM
CCCCCCCCCCCC1N=C(N)NC(CCCO)=C1C(=O)OC (stereo not drawn)	34.6 µM	40.6 µM	3.01 µM	29.7 µM	6.6 µM		4.75 µM	4.94 µM		3.72 µM	49.5 µM	9.08 µM	5.81 µM	33.2 µM	12.1 µM	8.12 µM		17.5 µM	5.02 µM	> 100 µM
CCN1C(=O)C(=Cc2ccc(-c3ccccc3)cc2)C(=O)N(CC)C1=S	> 100 µM	> 100 µM	> 100 µM	> 100 µM	> 100 µM	> 100 µM	> 100 µM	> 100 µM	> 100 µM		> 100 µM	> 100 µM	> 100 µM	> 100 µM	> 100 µM	> 100 µM	> 100 µM	> 100 µM	> 100 µM	
CC1CC/C(=C\c2ccc(N(C)C)cc2)C(=O)/C1=C/c1ccc(N(C)C)cc1 (stereo not drawn)		> 100 µM	> 100 µM	> 100 µM	> 100 µM	> 100 µM	> 100 µM	> 100 µM		> 100 µM	> 100 µM	> 100 µM		> 100 µM	> 100 µM	> 100 µM	> 100 µM	> 100 µM	> 100 µM	> 100 µM
C1=NCCOCCN=Cc2ccccc2OCc2cccc(n2)COc2ccccc21	20.7 µM	> 25 µM	> 25 µM	16.5 µM	19.1 µM	3.68 µM	18.4 µM	> 25 µM	> 25 µM	> 25 µM	13.4 µM	9.01 µM	> 25 µM	9.13 µM	> 25 µM	> 25 µM	> 25 µM			6.96 µM
C=CC12CN(C)C3C4COC(CC41)C1(C(=O)Nc4ccccc41)C32 (stereo not drawn)		> 200 µM	> 200 µM	> 200 µM			> 200 µM	> 200 µM	> 200 µM	> 200 µM	> 200 µM	> 200 µM	> 200 µM	> 200 µM	> 200 µM	> 82.4 µM	> 200 µM		> 200 µM	
CC(Oc1ccc(OCC2CCCCC2)cc1)C(=O)N(CCO)CCO (stereo not drawn)			> 100 µM	> 100 µM			> 100 µM	> 100 µM	> 100 µM	> 100 µM		> 100 µM	> 100 µM	39.8 µM	> 100 µM	> 100 µM			> 100 µM	
CC(=O)O[C@]12CCC[C@H]1C1(O)C(O)CCC[C@H]12 (stereo partly drawn)		> 100 µM	> 100 µM	> 100 µM			> 100 µM	> 100 µM	> 100 µM	> 100 µM			> 100 µM		> 100 µM	> 100 µM	> 100 µM			
CC(CCc1ccc2c(c1)c(=N)c1ccc(N)cc1n2O)CC(C)(C)C (stereo not drawn)		3.04 µM	4.03 µM	17.9 µM								3.19 µM	4.23 µM		3.58 µM		3.07 µM			
Cn1c(=O)nc2n(-c3ccc(Cl)cc3Cl)c3ccccc3nc-2c1=O		16.9 µM	5.19 µM	15.4 µM			35.7 µM	22 µM				5.59 µM	76 µM	19.3 µM	23.5 µM	72.8 µM			14.5 µM	
O=C(Nc1ccc([N+](=O)[O-])cc1)C(=O)C(C(=O)c1ccccc1F)C1OC(=O)c2ccccc21 (stereo not drawn)		> 100 µM	> 100 µM	> 100 µM			> 100 µM	> 100 µM	> 100 µM	41.6 µM			> 100 µM	56 µM	> 100 µM	> 100 µM	> 100 µM		41.4 µM	
COc1cc(/C=C/C2=NN(c3cccc(S(=O)(=O)O)c3)C3(C2)C(Cl)C(=O)N3c2nc3ccccc3s2)ccc1O (stereo not drawn)		42.3 µM	39.2 µM	37.4 µM	47.1 µM	32.1 µM	44.9 µM	29.6 µM	> 100 µM	30.4 µM	99.4 µM		50.5 µM	46 µM	76.6 µM		48 µM	26.4 µM	38.2 µM	60.3 µM
COc1ccc(NCC(=O)Nn2c(C)nc3ccc(S(=O)(=O)Nc4ccc(OC)cc4)cc3c2=O)cc1	> 100 µM	> 100 µM	> 100 µM	> 100 µM	> 100 µM	> 100 µM	> 100 µM	> 100 µM	> 100 µM	> 100 µM	> 100 µM	> 100 µM	> 100 µM	> 100 µM	> 100 µM	> 100 µM	> 100 µM		> 100 µM	> 100 µM
O=C(CC(C(=O)c1cccs1)c1ccsc1)c1ccsc1 (stereo not drawn)	> 100 µM	> 100 µM	> 100 µM	> 100 µM	> 100 µM	> 100 µM	> 100 µM	> 100 µM	> 100 µM	50 µM	63.6 µM	> 100 µM	> 100 µM	94.8 µM	> 100 µM	> 100 µM	> 100 µM	> 100 µM	> 100 µM	
CCOC(=O)C(O)(NC(=O)Nc1ccc(F)cc1)C(F)(F)F (stereo not drawn)		> 100 µM	> 100 µM	> 100 µM		> 100 µM	> 100 µM	> 100 µM			> 100 µM		> 100 µM	> 100 µM	> 100 µM	> 100 µM	> 100 µM	> 100 µM	> 100 µM	> 100 µM
CCOC(=O)C(NC(=O)NC(C(=O)OCC)C(=O)OCC)C(=O)OCC	> 100 µM	> 100 µM	> 100 µM	> 100 µM		> 100 µM	> 100 µM	> 100 µM	> 100 µM	> 100 µM	> 100 µM	> 100 µM	> 100 µM	> 100 µM	> 100 µM	> 100 µM	> 100 µM		> 100 µM	> 100 µM
COC(=O)[C@@]12OC[C@]34C([C@@H](O)C1O)[C@@]1(C)CC(=O)C(O)=C(C)C1C[C@H]3OC(=O)[C@H](OC(=O)CC(C)C(F)(F)F)[C@H]42 (stereo partly drawn)		0.999 µM	0.18 µM	1.77 µM			0.312 µM	0.0717 µM	0.0554 µM	0.088 µM			0.644 µM	0.067 µM	0.111 µM	0.531 µM	1.37 µM		0.0599 µM	
CCOC(=O)CN1CCSC1=NC#N		> 100 µM	> 100 µM	> 100 µM			> 100 µM	> 100 µM	> 31.6 µM	> 100 µM	> 100 µM	> 100 µM	> 100 µM	> 100 µM	> 100 µM	> 100 µM	> 100 µM		> 100 µM	
CSCC[C@H]1C(=O)N=C(N)N1C(=O)OCc1ccccc1	> 100 µM	> 100 µM	37.7 µM	> 100 µM	> 100 µM	> 100 µM	51.5 µM	55.4 µM	> 100 µM	46.5 µM	> 100 µM	> 100 µM	> 100 µM		96.8 µM		33.9 µM		> 100 µM	> 100 µM

— PubChem BioAssay (NCI)
